Measurements as given in patent publication US7226923B2, “Phthalazinone derivatives” (Hoffman-La Roche Inc., priority 2004, dated 2007).

Assays:
Aurora A = biological target: T1, Aurora A (Homo sapiens, UniProt O14965); experiment: IC50 determination for inhibitors of Aurora A (96 MTP-ELISA); type: biochemical; conditions: His4-tagged full-length Aurora A 250 ng/ml, PKB-GSK2 200 nM, ATP 4 μM, 90 min at room temperature, read-out: IC50 Aurora A kinase inhibition
T1 construct: C-terminally Histidine4 (His4)-tagged Aurora A full-length protein
T1 sequence (O14965 1-403): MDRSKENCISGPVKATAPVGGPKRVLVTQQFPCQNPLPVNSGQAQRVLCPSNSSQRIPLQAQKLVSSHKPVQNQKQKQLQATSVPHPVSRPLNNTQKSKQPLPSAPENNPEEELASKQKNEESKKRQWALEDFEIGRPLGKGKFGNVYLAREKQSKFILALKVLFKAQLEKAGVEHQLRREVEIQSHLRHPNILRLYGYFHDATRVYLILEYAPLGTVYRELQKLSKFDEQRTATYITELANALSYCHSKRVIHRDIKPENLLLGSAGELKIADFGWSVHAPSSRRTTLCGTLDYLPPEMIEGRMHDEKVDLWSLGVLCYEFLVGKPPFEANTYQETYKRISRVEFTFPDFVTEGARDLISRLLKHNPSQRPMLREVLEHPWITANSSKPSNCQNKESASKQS

HCT 116 cells = experiment: CellTiter-Glo assay in HCT 116 cells; type: cell-based, human; conditions: Homo sapiens, HCT-116, 120 h, 5 days incubation, 30 μM to 0.0015 μM
Procedure, shortened: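 Cells seeded at 1000/well in RPMI 1640 with 5% FCS, grown 24 h at 37 °C, then treated with 10 concentrations from 30 μM to 0.0015 μM (1:3 dilutions). After 5 days viability was read as ATP-based luminescence (CellTiter-Glo) following 30 min room-temperature equilibration and lysis.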

Compound	IC50 (Aurora A)	IC50 (HCT 116 cells)
Cc1cc(Nc2nn(-c3ccc([N+](=O)[O-])cc3)c(=O)c3ccccc23)n[nH]1 [Example W-3, 4-(5-Methyl-1H-pyrazol-3-ylamino)-2-(4-nitro-phenyl)-2H-phthalazin-1-one]	0.001 to 0.1 µM	10 to 100 µM
Cc1cc(Nc2nn(-c3ccncc3)c(=O)c3ccccc23)n[nH]1 [Example X-1, 4-(5-Methyl-1H-pyrazol-3-ylamino)-2-pyridin-4-yl-2H-phthalazin-1-one]	0.1 to 1 µM	0.1 to 10 µM
Cc1cc(Nc2nn(-c3ccccc3)c(=O)c3ccc(N)cc23)n[nH]1 [Example Z-1, 6-Amino-4-(5-methyl-1H-pyrazol-3-ylamino)-2-phenyl-2H-phthalazin-1-one]	0.1 to 1 µM	0.1 to 10 µM
Cc1cc(Nc2nn(-c3ccc(S(=O)(=O)C(C)(C)C)cc3)c(=O)c3ccccc23)n[nH]1 [Example ZA-1, 2-[4-(2-Methyl-propane-2-sulfonyl)-phenyl]-4-(5-methyl-1H-pyrazol-3-ylamino)-2H-phthalazin-1-one]	0.001 to 0.1 µM	0.1 to 10 µM
Cc1cc(Nc2nn(-c3ccc(C(C)(C)C)cc3)c(=O)c3cc(NC=O)ccc23)[nH]n1 [Example ZB-1, N-[3-(4-tert-Butyl-phenyl)-1-(5-methyl-2H-pyrazol-3-ylamino)-4-oxo-3,4-dihydro-phthalazin-6-yl]-formamide]	0.001 to 0.1 µM	0.1 to 10 µM
Cc1cc(Nc2nn(-c3ccc(C(C)(C)C)cc3)c(=O)c3cc([N+](=O)[O-])ccc23)[nH]n1 [Example ZB-3, 2-(4-tert-Butyl-phenyl)-4-(5-methyl-2H-pyrazol-3-ylamino)-7-nitro-2H-phthalazin-1-one]	0.001 to 0.1 µM	0.1 to 10 µM
